Measurements published in the supplement of paper PMC10307832.

Assays:
Test in all cases: relative viability (nuclei count vs DMSO), 5 days (fraction); higher = more cells survive
ChaGo-K-1 = tested on: ChaGo-K-1
In short: (§1)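 Relative viability divides the nuclei count in treated wells by that in vehicle wells. Lung cancer cell lines were seeded in 1536-well plates, dosed by pin tool the next day, and fixed and stained after 5 days in one step with final 0.05% Triton X-100, 1% formaldehyde and 1 ug/ml Hoechst. Dosing was a single drug or a fixed anchor-drug dose plus five library-drug doses (not always all listed) in √10 steps, and values are medians of duplicate plates imaged at 4×.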

NCI-H661 = tested on: NCI-H661
In short: as §1

NCI-H358 = tested on: NCI-H358
In short: as §1

NCI-H2342 = tested on: NCI-H2342
In short: as §1

LU99A = tested on: LU99A
In short: as §1

BEN = tested on: BEN
In short: as §1

NCI-H596 = tested on: NCI-H596
In short: as §1

LCLC-97TM1 = tested on: LCLC-97TM1
In short: as §1

NCI-H1651 = tested on: NCI-H1651
In short: as §1

NCI-H2087 = tested on: NCI-H2087
In short: as §1

LC-2-ad = tested on: LC-2-ad
In short: as §1

NCI-H1666 = tested on: NCI-H1666
In short: as §1

HCC-15 = tested on: HCC-15
In short: as §1

HCC-78 = tested on: HCC-78
In short: as §1

NCI-H1944 = tested on: NCI-H1944
In short: as §1

NCI-H650 = tested on: NCI-H650
In short: as §1

NCI-H322M = tested on: NCI-H322M
In short: as §1

PC-3 [JPC-3] = tested on: PC-3 [JPC-3]
In short: as §1

UMC-11 = tested on: UMC-11
In short: as §1

NCI-H838 = tested on: NCI-H838
In short: as §1

LXF-289 = tested on: LXF-289
In short: as §1

SK-MES-1 = tested on: SK-MES-1
In short: as §1

LK-2 = tested on: LK-2
In short: as §1

CC1(C)CCC(c2ccc(Cl)cc2)=C(CN2CCN(c3ccc(C(=O)NS(=O)(=O)c4ccc(N[C@H](CCN5CCOCC5)CSc5ccccc5)c(S(=O)(=O)C(F)(F)F)c4)cc3)CC2)C1 [Navitoclax] + Nc1nc2[nH]cc(CCc3ccc(C(=O)N[C@@H](CCC(=O)O)C(=O)O)cc3)c2c(=O)[nH]1 [Pemetrexed] (partner 0.2 µM)
relative viability (ChaGo-K-1; first compound 0.005 µM): 0.258 | relative viability (ChaGo-K-1; first compound 0.01581 µM): 0.26 | relative viability (ChaGo-K-1; first compound 0.05 µM): 0.25 | relative viability (ChaGo-K-1; first compound 0.1581 µM): 0.268 | relative viability (ChaGo-K-1; first compound 0.5 µM): 0.265 | relative viability (NCI-H661; first compound 0.005 µM): 0.936 | relative viability (NCI-H661; first compound 0.01581 µM): 0.958 | relative viability (NCI-H661; first compound 0.05 µM): 0.9 | relative viability (NCI-H661; first compound 0.1581 µM): 0.883 | relative viability (NCI-H661; first compound 0.5 µM): 0.876 | relative viability (NCI-H358; first compound 0.005 µM): 0.17 | relative viability (NCI-H358; first compound 0.01581 µM): 0.173 | relative viability (NCI-H358; first compound 0.05 µM): 0.167 | relative viability (NCI-H358; first compound 0.1581 µM): 0.165 | relative viability (NCI-H358; first compound 0.5 µM): 0.187 | relative viability (NCI-H2342; first compound 0.005 µM): 0.818 | relative viability (NCI-H2342; first compound 0.01581 µM): 0.81 | relative viability (NCI-H2342; first compound 0.05 µM): 0.805 | relative viability (NCI-H2342; first compound 0.1581 µM): 0.719 | relative viability (NCI-H2342; first compound 0.5 µM): 0.763 | relative viability (LU99A; first compound 0.005 µM): 0.202 | relative viability (LU99A; first compound 0.01581 µM): 0.205 | relative viability (LU99A; first compound 0.1581 µM): 0.196 | relative viability (LU99A; first compound 0.5 µM): 0.167 | relative viability (BEN; first compound 0.005 µM): 0.781 | relative viability (BEN; first compound 0.01581 µM): 0.841 | relative viability (BEN; first compound 0.05 µM): 0.74 | relative viability (BEN; first compound 0.1581 µM): 0.803 | relative viability (BEN; first compound 0.5 µM): 0.418 | relative viability (NCI-H596; first compound 0.005 µM): 0.418 | relative viability (NCI-H596; first compound 0.01581 µM): 0.459 | relative viability (NCI-H596; first compound 0.05 µM): 0.5 | relative viability (NCI-H596; first compound 0.1581 µM): 0.439 | relative viability (NCI-H596; first compound 0.5 µM): 0.39 | relative viability (LCLC-97TM1; first compound 0.005 µM): 0.182 | relative viability (LCLC-97TM1; first compound 0.01581 µM): 0.191 | relative viability (LCLC-97TM1; first compound 0.05 µM): 0.158 | relative viability (LCLC-97TM1; first compound 0.1581 µM): 0.156 | relative viability (LCLC-97TM1; first compound 0.5 µM): 0.204 | relative viability (NCI-H1651; first compound 0.005 µM): 0.682 | relative viability (NCI-H1651; first compound 0.01581 µM): 0.552 | relative viability (NCI-H1651; first compound 0.05 µM): 0.503 | relative viability (NCI-H1651; first compound 0.1581 µM): 0.633 | relative viability (NCI-H1651; first compound 0.5 µM): 0.548 | relative viability (NCI-H2087; first compound 0.005 µM): 0.689 | relative viability (NCI-H2087; first compound 0.01581 µM): 0.697 | relative viability (NCI-H2087; first compound 0.1581 µM): 0.686 | relative viability (NCI-H2087; first compound 0.5 µM): 0.675 | relative viability (LC-2-ad; first compound 0.005 µM): 0.268 | relative viability (LC-2-ad; first compound 0.01581 µM): 0.263 | relative viability (LC-2-ad; first compound 0.05 µM): 0.284 | relative viability (LC-2-ad; first compound 0.1581 µM): 0.295 | relative viability (LC-2-ad; first compound 0.5 µM): 0.275 | relative viability (NCI-H1666; first compound 0.005 µM): 0.867 | relative viability (NCI-H1666; first compound 0.01581 µM): 0.964 | relative viability (NCI-H1666; first compound 0.05 µM): 0.836 | relative viability (NCI-H1666; first compound 0.1581 µM): 0.831 | relative viability (NCI-H1666; first compound 0.5 µM): 0.966 | relative viability (HCC-15; first compound 0.005 µM): 0.227 | relative viability (HCC-15; first compound 0.01581 µM): 0.26 | relative viability (HCC-15; first compound 0.05 µM): 0.218 | relative viability (HCC-15; first compound 0.1581 µM): 0.228 | relative viability (HCC-15; first compound 0.5 µM): 0.229 | relative viability (HCC-78; first compound 0.005 µM): 0.867 | relative viability (HCC-78; first compound 0.01581 µM): 0.878 | relative viability (HCC-78; first compound 0.05 µM): 0.921 | relative viability (HCC-78; first compound 0.1581 µM): 0.875 | relative viability (HCC-78; first compound 0.5 µM): 0.777 | relative viability (NCI-H1944; first compound 0.005 µM): 0.611 | relative viability (NCI-H1944; first compound 0.01581 µM): 0.623 | relative viability (NCI-H1944; first compound 0.1581 µM): 0.597 | relative viability (NCI-H1944; first compound 0.5 µM): 0.534 | relative viability (NCI-H650; first compound 0.005 µM): 0.9 | relative viability (NCI-H650; first compound 0.01581 µM): 1.05 | relative viability (NCI-H650; first compound 0.05 µM): 0.908 | relative viability (NCI-H650; first compound 0.1581 µM): 0.95 | relative viability (NCI-H650; first compound 0.5 µM): 0.999 | relative viability (NCI-H322M; first compound 0.005 µM): 0.661 | relative viability (NCI-H322M; first compound 0.01581 µM): 0.651 | relative viability (NCI-H322M; first compound 0.05 µM): 0.65 | relative viability (NCI-H322M; first compound 0.1581 µM): 0.651 | relative viability (NCI-H322M; first compound 0.5 µM): 0.649 | relative viability (PC-3 [JPC-3]; first compound 0.005 µM): 1.12 | relative viability (PC-3 [JPC-3]; first compound 0.01581 µM): 1.26 | relative viability (PC-3 [JPC-3]; first compound 0.05 µM): 0.974 | relative viability (PC-3 [JPC-3]; first compound 0.1581 µM): 1.02 | relative viability (PC-3 [JPC-3]; first compound 0.5 µM): 0.754 | relative viability (UMC-11; first compound 0.005 µM): 0.79 | relative viability (UMC-11; first compound 0.01581 µM): 0.822 | relative viability (UMC-11; first compound 0.05 µM): 0.821 | relative viability (UMC-11; first compound 0.1581 µM): 0.759 | relative viability (UMC-11; first compound 0.5 µM): 0.444 | relative viability (NCI-H838; first compound 0.005 µM): 0.242 | relative viability (NCI-H838; first compound 0.01581 µM): 0.254 | relative viability (NCI-H838; first compound 0.05 µM): 0.28 | relative viability (NCI-H838; first compound 0.1581 µM): 0.266 | relative viability (NCI-H838; first compound 0.5 µM): 0.244 | relative viability (LXF-289; first compound 0.005 µM): 0.85 | relative viability (LXF-289; first compound 0.01581 µM): 0.914 | relative viability (LXF-289; first compound 0.05 µM): 0.865 | relative viability (LXF-289; first compound 0.1581 µM): 0.926 | relative viability (LXF-289; first compound 0.5 µM): 0.852 | relative viability (SK-MES-1; first compound 0.005 µM): 0.913 | relative viability (SK-MES-1; first compound 0.01581 µM): 1.05 | relative viability (SK-MES-1; first compound 0.05 µM): 1.03 | relative viability (SK-MES-1; first compound 0.1581 µM): 0.884 | relative viability (SK-MES-1; first compound 0.5 µM): 0.927 | relative viability (LK-2; first compound 0.005 µM): 0.35 | relative viability (LK-2; first compound 0.01581 µM): 0.244 | relative viability (LK-2; first compound 0.05 µM): 0.281 | relative viability (LK-2; first compound 0.1581 µM): 0.332 | relative viability (LK-2; first compound 0.5 µM): 0.316
